# Patent publication US8716347B2, “Tramadol for the treatment of functional gastrointestinal disorders” (Euro-Celtique S.A., priority 2000, dated 2014)
# Where a name gives a salt, the structure may show the parent alone.
# What was measured:
# [1] = tested on: patients started on tramadol pain therapy; details: initially when started on tramadol pain therapy; cited from earlier work
# [2] = tested on: functional gastrointestinal disorder (diarrhoea with abdominal pain); assay: Treatment of patients with abdominal pain and diarrhoea with normal release tramadol (case reports); format: in vivo, human; details: 50 mg normal release twice daily
# [3] = tested on: gut transit time; details: in vivo; cited from earlier work
# [4] = Example 2: person with abdominal pain and diarrhoea
structure (smiles),measurement,setting,value
"COc1cccc(C2(O)CCCCC2CN(C)C)c1 (stereo not shown) [tramadol, 2-[(Dimethylamino)methyl]-1-(3-methoxyphenyl)cyclohexanol]",proportion of patients suffering nausea and vomiting,[1],one third and a half
same,abdominal pain after treatment,[2]; [4],relief of pain
same,bowel movements after treatment,[2]; [4],normal bowel movements
same,side effect,[2]; Example 2: person,some drowsiness
CN(C)CCCN1c2ccccc2CCc2ccccc21 [imipramine],effect on gut transit time,[3],increase gut transit time
COc1cccc(C2(O)CCCCC2CN(C)C)c1 (stereo not shown) [tramadol hydrochloride],bowel movements after treatment,"[2]; Example 1: person, long term chronic refractory diarrhoea",normal bowel movements
same,abdominal pain after treatment,"[2]; Example 1: person, severe persistent abdominal pain",absence of pain
